Experimental data as given in PMC6008299, “Impact of race on dose selection of molecular-targeted agents in early-phase oncology trials” (British Journal of Cancer, 2018).
“Also recorded” adds a separate entry of the source.

Assays:
[1] = tested on: patients with advanced, refractory solid tumours; experiment: Phase I dose-escalation study U101 (US): safety, DLT, MTD; format: in vivo
Excerpt: Studies were approved by the Institutional Review Board at the participating institutions and regulatory authorities. Written informed consent in English and Japanese was obtained from all patients prior to enrollment.
Secondary and exploratory objectives were to evaluate PK, tumour response, and PD effects. Treatment-emergent adverse events (TEAE) were graded using the Common Terminology Criteria for Adverse Events version 4.0. A dose-limiting toxicity (DLT) was defined as a grade ≥3 clinically significant toxicity, with the exceptions of grade ≥4 anaemia and prolonged grade 3 neutropenia. Both studies were open-label, phase I dose-escalation studies. In Japan, the study was conducted at a single centre, while the US study was conducted at three sites. […] In the US, an accelerated titration design was used at low doses followed by a mCRM with EWOC. Briefly, the dose was escalated based on safety data in a single patient until a grade 2 or higher toxicity was observed during cycle 1 or the DLT period (days 1–28). […] Prophylactic granulocyte colony-stimulating factor and antiemetics were not permitted during cycle 1.

advanced solid tumours = experiment: Tumour assessment RECIST 1.1, Japanese study; format: in vivo, human; settings: Japan; of 25 patients
Description: (§1) In both studies, the PK profile of DS-7423 was characterised during cycle 1 on days 1 and 8. For PD analysis, glucose, C-peptide, and Akt phosphorylation were measured in platelet-rich plasma collected at predose, 1, 2, 4, 6, and 24 h after dosing on days 1 and 15. Tumour assessment was performed every two cycles using Response Evaluation Criteria in Solid Tumours (RECIST) version 1.1 in both studies. 18F-Fluoro-2-deoxy-D-glucose positron emission tomography ([18F]-FDG) was performed as an exploratory endpoint at baseline and on day 4.[10]

tumour [18F]-FDG uptake = experiment: [18F]-FDG-PET metabolic response, Japanese (Asian) patients; format: in vivo, human; settings: day 4
Description: as §1

CC(=O)N1CCN(c2nc3c(N4CCOCC4)nc(-c4cnc(N)nc4)nc3n2CC(F)(F)F)C[C@H]1C [DS-7423]
AST increased (TEAE), n patients ([1]; 160 mg US cohort (n = 4)): 0 | Abdominal pain (TEAE), n patients ([1]; 160 mg US cohort (n = 4)): 1 | Back pain (TEAE), n patients ([1]; 160 mg US cohort (n = 4)): 0 | Blood creatinine increased (TEAE), n patients ([1]; 160 mg US cohort (n = 4)): 2 | Constipation (TEAE), n patients ([1]; 160 mg US cohort (n = 4)): 2 | Cough (TEAE), n patients ([1]; 160 mg US cohort (n = 4)): 0 | Decreased appetite (TEAE), n patients ([1]; 160 mg US cohort (n = 4)): 3 | Dehydration (TEAE), n patients ([1]; 160 mg US cohort (n = 4)): 1 | Diarrhoea (TEAE), n patients ([1]; 160 mg US cohort (n = 4)): 4 | Dry mouth (TEAE), n patients ([1]; 160 mg US cohort (n = 4)): 0 | Dysgeusia (TEAE), n patients ([1]; 160 mg US cohort (n = 4)): 1 | Dyspnea (TEAE), n patients ([1]; 160 mg US cohort (n = 4)): 0 | Edema (TEAE), n patients ([1]; 160 mg US cohort (n = 4)): 0 | Fatigue (TEAE), n patients ([1]; 160 mg US cohort (n = 4)): 4 | Hyperglycaemia (TEAE), n patients ([1]; 160 mg US cohort (n = 4)): 1 | Lung infection/ pneumonia (TEAE), n patients ([1]; 160 mg US cohort (n = 4)): 0 | Nausea (TEAE), n patients ([1]; 160 mg US cohort (n = 4)): 2 | Pyrexia (TEAE), n patients ([1]; 160 mg US cohort (n = 4)): 0 | Rash (TEAE), n patients ([1]; 160 mg US cohort (n = 4)): 0 | Stomatitis (TEAE), n patients ([1]; 160 mg US cohort (n = 4)): 1 | Vomiting (TEAE), n patients ([1]; 160 mg US cohort (n = 4)): 2 | Abdominal pain (TEAE), n patients ([1]; 240 mg US cohort (n = 9)): 4 | Back pain (TEAE), n patients ([1]; 240 mg US cohort (n = 9)): 3 | Blood creatinine increased (TEAE), n patients ([1]; 240 mg US cohort (n = 9)): 2 | Constipation (TEAE), n patients ([1]; 240 mg US cohort (n = 9)): 1 | Cough (TEAE), n patients ([1]; 240 mg US cohort (n = 9)): 0 | Decreased appetite (TEAE), n patients ([1]; 240 mg US cohort (n = 9)): 5 | Decreased appetite ≥G3, n patients ([1]; 240 mg US cohort (n = 9)): 1 | Dehydration (TEAE), n patients ([1]; 240 mg US cohort (n = 9)): 1 | Diarrhoea (TEAE), n patients ([1]; 240 mg US cohort (n = 9)): 5 | Dry mouth (TEAE), n patients ([1]; 240 mg US cohort (n = 9)): 3 | Dysgeusia (TEAE), n patients ([1]; 240 mg US cohort (n = 9)): 2 | Dyspnea (TEAE), n patients ([1]; 240 mg US cohort (n = 9)): 3 | Edema (TEAE), n patients ([1]; 240 mg US cohort (n = 9)): 1 | Fatigue (TEAE), n patients ([1]; 240 mg US cohort (n = 9)): 5 | Fatigue ≥G3, n patients ([1]; 240 mg US cohort (n = 9)): 1 | Hyperglycaemia (TEAE), n patients ([1]; 240 mg US cohort (n = 9)): 2 | Lung infection/ pneumonia (TEAE), n patients ([1]; 240 mg US cohort (n = 9)): 1 | Nausea (TEAE), n patients ([1]; 240 mg US cohort (n = 9)): 4 | Pyrexia (TEAE), n patients ([1]; 240 mg US cohort (n = 9)): 2 | Rash (TEAE), n patients ([1]; 240 mg US cohort (n = 9)): 0 | Stomatitis (TEAE), n patients ([1]; 240 mg US cohort (n = 9)): 5 | Stomatitis G3, n patients ([1]; 240 mg US cohort (n = 9)): 1 | Vomiting (TEAE), n patients ([1]; 240 mg US cohort (n = 9)): 3 | AST increased (TEAE), n patients ([1]; 240 mg US cohort (n = 9), cell marks ≥G3): 2, ≥G3 | AST increased (TEAE), n patients ([1]; 320 mg US cohort (n = 8)): 0 | Abdominal pain (TEAE), n patients ([1]; 320 mg US cohort (n = 8)): 0 | Back pain (TEAE), n patients ([1]; 320 mg US cohort (n = 8)): 0 | Blood creatinine increased (TEAE), n patients ([1]; 320 mg US cohort (n = 8)): 2 | Constipation (TEAE), n patients ([1]; 320 mg US cohort (n = 8)): 1 | Cough (TEAE), n patients ([1]; 320 mg US cohort (n = 8)): 1 | Decreased appetite (TEAE), n patients ([1]; 320 mg US cohort (n = 8)): 5 | Dehydration (TEAE), n patients ([1]; 320 mg US cohort (n = 8)): 3 | Dehydration G3, n patients ([1]; 320 mg US cohort (n = 8)): 1 | Diarrhoea (TEAE), n patients ([1]; 320 mg US cohort (n = 8)): 4 | Dry mouth (TEAE), n patients ([1]; 320 mg US cohort (n = 8)): 2 | Dysgeusia (TEAE), n patients ([1]; 320 mg US cohort (n = 8)): 5 | Dyspnea (TEAE), n patients ([1]; 320 mg US cohort (n = 8)): 2 | Edema (TEAE), n patients ([1]; 320 mg US cohort (n = 8)): 1 | Fatigue (TEAE), n patients ([1]; 320 mg US cohort (n = 8)): 6 | Fatigue G3, n patients ([1]; 320 mg US cohort (n = 8)): 1 | Hyperglycaemia (TEAE), n patients ([1]; 320 mg US cohort (n = 8)): 3 | Nausea (TEAE), n patients ([1]; 320 mg US cohort (n = 8)): 5 | Pyrexia (TEAE), n patients ([1]; 320 mg US cohort (n = 8)): 2 | Rash (TEAE), n patients ([1]; 320 mg US cohort (n = 8)): 3 | Stomatitis (TEAE), n patients ([1]; 320 mg US cohort (n = 8)): 1 | Vomiting (TEAE), n patients ([1]; 320 mg US cohort (n = 8)): 4 | Lung infection/ pneumonia (TEAE), n patients ([1]; 320 mg US cohort (n = 8), cell marks G3): 1, G3 | AST increased (TEAE), n patients ([1]; 2–28 mg US cohort (n = 10)): 3 | AST increased ≥G3, n patients ([1]; 2–28 mg US cohort (n = 10)): 1 | Abdominal pain (TEAE), n patients ([1]; 2–28 mg US cohort (n = 10)): 0 | Back pain (TEAE), n patients ([1]; 2–28 mg US cohort (n = 10)): 5 | Blood creatinine increased (TEAE), n patients ([1]; 2–28 mg US cohort (n = 10)): 0 | Constipation (TEAE), n patients ([1]; 2–28 mg US cohort (n = 10)): 3 | Cough (TEAE), n patients ([1]; 2–28 mg US cohort (n = 10)): 2 | Decreased appetite (TEAE), n patients ([1]; 2–28 mg US cohort (n = 10)): 3 | Dehydration (TEAE), n patients ([1]; 2–28 mg US cohort (n = 10)): 0 | Diarrhoea (TEAE), n patients ([1]; 2–28 mg US cohort (n = 10)): 5 | Dry mouth (TEAE), n patients ([1]; 2–28 mg US cohort (n = 10)): 3 | Dysgeusia (TEAE), n patients ([1]; 2–28 mg US cohort (n = 10)): 0 | Dyspnea (TEAE), n patients ([1]; 2–28 mg US cohort (n = 10)): 2 | Edema (TEAE), n patients ([1]; 2–28 mg US cohort (n = 10)): 2 | Fatigue (TEAE), n patients ([1]; 2–28 mg US cohort (n = 10)): 7 | Fatigue ≥G3, n patients ([1]; 2–28 mg US cohort (n = 10)): 2 | Hyperglycaemia (TEAE), n patients ([1]; 2–28 mg US cohort (n = 10)): 0 | Nausea (TEAE), n patients ([1]; 2–28 mg US cohort (n = 10)): 6 | Pyrexia (TEAE), n patients ([1]; 2–28 mg US cohort (n = 10)): 1 | Rash (TEAE), n patients ([1]; 2–28 mg US cohort (n = 10)): 2 | Stomatitis (TEAE), n patients ([1]; 2–28 mg US cohort (n = 10)): 1 | Vomiting (TEAE), n patients ([1]; 2–28 mg US cohort (n = 10)): 4 | Lung infection/ pneumonia (TEAE), n patients ([1]; 2–28 mg US cohort (n = 10), cell marks G3): 1, G3 | AST increased (TEAE), n patients ([1]; 48–80 mg US cohort (n = 11)): 1 | Abdominal pain (TEAE), n patients ([1]; 48–80 mg US cohort (n = 11)): 1 | Back pain (TEAE), n patients ([1]; 48–80 mg US cohort (n = 11)): 1 | Blood creatinine increased (TEAE), n patients ([1]; 48–80 mg US cohort (n = 11)): 0 | Constipation (TEAE), n patients ([1]; 48–80 mg US cohort (n = 11)): 0 | Cough (TEAE), n patients ([1]; 48–80 mg US cohort (n = 11)): 3 | Decreased appetite (TEAE), n patients ([1]; 48–80 mg US cohort (n = 11)): 2 | Diarrhoea (TEAE), n patients ([1]; 48–80 mg US cohort (n = 11)): 4 | Dry mouth (TEAE), n patients ([1]; 48–80 mg US cohort (n = 11)): 3 | Dysgeusia (TEAE), n patients ([1]; 48–80 mg US cohort (n = 11)): 2 | Dyspnea (TEAE), n patients ([1]; 48–80 mg US cohort (n = 11)): 1 | Edema (TEAE), n patients ([1]; 48–80 mg US cohort (n = 11)): 1 | Fatigue (TEAE), n patients ([1]; 48–80 mg US cohort (n = 11)): 5 | Fatigue ≥G3, n patients ([1]; 48–80 mg US cohort (n = 11)): 1 | Hyperglycaemia (TEAE), n patients ([1]; 48–80 mg US cohort (n = 11)): 2 | Lung infection/ pneumonia (TEAE), n patients ([1]; 48–80 mg US cohort (n = 11)): 0 | Nausea (TEAE), n patients ([1]; 48–80 mg US cohort (n = 11)): 6 | Pyrexia (TEAE), n patients ([1]; 48–80 mg US cohort (n = 11)): 2 | Rash (TEAE), n patients ([1]; 48–80 mg US cohort (n = 11)): 4 | Rash G3, n patients ([1]; 48–80 mg US cohort (n = 11)): 1 | Stomatitis (TEAE), n patients ([1]; 48–80 mg US cohort (n = 11)): 3 | Vomiting (TEAE), n patients ([1]; 48–80 mg US cohort (n = 11)): 3 | Dehydration (TEAE), n patients ([1]; 48–80 mg US cohort (n = 11), cell marks G3): 1, G3 | MTD ([1]; US study): 240 mg | Grade 3 DLT ([1]; US study, 48 mg): rash | Grade 3 DLT ([1]; US study, 240 mg): stomatitis; also recorded: fatigue and dehydration | Patients with DLT ([1]; US study, of 34 DLT-evaluable patients): 4 | Patients with tumour shrinkage and durable disease control (advanced solid tumours): 5 | Patients with partial metabolic response ([18F]-FDG-PET) (tumour [18F]-FDG uptake): 36.4% | Patients with partial metabolic response ([18F]-FDG-PET) (tumour [18F]-FDG uptake; of 11 patients): 4
